Test results reported in ChEMBL document CHEMBL1201862, “PubChem BioAssay data set” (2004).
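Where inhibition never reached the appropriate level, the endpoint shown equals the highest concentration tested. Otherwise, values were interpolated linearly from a five-concentration, 48-hour dose response in 96-well plates. Abbreviation: GI50, concentration required for 50% inhibition of growth.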 Calls of active or inactive are those of the source. Rule as the data show it: active = GI50 up to about 1.1 µM and inactive = higher.

Key:
Experiment in all cases: NCI tumour cell line growth inhibition, 48 h
[1] = test system: 786-0
[2] = test system: A498
[3] = test system: A549
[4] = test system: ACHN
[5] = test system: BT-549
[6] = test system: CAKI-1
[7] = test system: CCRF-CEM
[8] = test system: COLO 205
[9] = test system: DU-145
[10] = test system: EKVX
[11] = test system: HCC 2998
[12] = test system: HCT-116
[13] = test system: HCT-15
[14] = test system: HL-60
[15] = test system: HOP-62
[16] = test system: HOP-92
[17] = test system: HT-29
[18] = test system: Hs-578T
[19] = test system: IGROV-1
[20] = test system: K562
[21] = test system: KM12
[22] = test system: LOX IMVI
[23] = test system: M14
[24] = test system: MCF7
[25] = test system: MDA-MB-231
[26] = test system: MDA-MB-435
[27] = test system: MDA-N
[28] = test system: MOLT-4
[29] = test system: Malme-3M
[30] = test system: NCI-H226
[31] = test system: NCI-H23
[32] = test system: NCI-H460
[33] = test system: NCI-H522
[34] = test system: NCI/ADR-RES
[35] = test system: OVCAR-3
[36] = test system: OVCAR-4
[37] = test system: OVCAR-5
[38] = test system: OVCAR-8
[39] = test system: PC-3
[40] = test system: RPMI-8226
[41] = test system: RXF 393
[42] = test system: SF-268
[43] = test system: SF-295
[44] = test system: SF-539
[45] = test system: SK-MEL-28
[46] = test system: SK-MEL-2
[47] = test system: SK-MEL-5
[48] = test system: SK-OV-3
[49] = test system: SN12C
[50] = test system: SNB-19
[51] = test system: SNB-75
[52] = test system: SR
[53] = test system: SW-620
[54] = test system: T47D
[55] = test system: TK-10
[56] = test system: U-251
[57] = test system: UACC-257
[58] = test system: UACC-62
[59] = test system: UO-31

CCOC(=O)C(Cc1cccn1C(=O)OC(C)(C)C)[N+](=O)[O-] (centres undefined)
GI50 [1]: 21.9 µM (inactive)
GI50 [2]: 23.5 µM (inactive)
GI50 [3]: 32 µM (inactive)
GI50 [4]: 22.3 µM (inactive)
GI50 [5]: 30.8 µM (inactive)
GI50 [6]: 24.7 µM (inactive)
GI50 [7]: 17.1 µM (inactive)
GI50 [8]: 20.8 µM (inactive)
GI50 [9]: 26.9 µM (inactive)
GI50 [10]: 48.3 µM (inactive)
GI50 [11]: 21 µM (inactive)
GI50 [12]: 20.9 µM (inactive)
GI50 [13]: 24.3 µM
GI50 [14]: 21.1 µM (inactive)
GI50 [15]: 23.9 µM (inactive)
GI50 [16]: 28.2 µM (inactive)
GI50 [17]: 22.3 µM (inactive)
GI50 [18]: 29.9 µM (inactive)
GI50 [19]: 21.5 µM (inactive)
GI50 [20]: 24.7 µM (inactive)
GI50 [21]: 22.8 µM (inactive)
GI50 [22]: 17.5 µM (inactive)
GI50 [23]: 19.2 µM (inactive)
GI50 [24]: 37.7 µM (inactive)
GI50 [25]: 19 µM (inactive)
GI50 [26]: 26.6 µM (inactive)
GI50 [27]: 26.7 µM (inactive)
GI50 [28]: 20 µM (inactive)
GI50 [29]: 28.1 µM (inactive)
GI50 [30]: 26.1 µM (inactive)
GI50 [31]: 34.8 µM (inactive)
GI50 [32]: 24.3 µM (inactive)
GI50 [33]: 19.6 µM (inactive)
GI50 [34]: 44.7 µM (inactive)
GI50 [35]: 32.1 µM (inactive)
GI50 [36]: 28.6 µM (inactive)
GI50 [37]: 23.8 µM (inactive)
GI50 [38]: 31.7 µM (inactive)
GI50 [39]: 20.7 µM (inactive)
GI50 [40]: 20.5 µM (inactive)
GI50 [41]: 17.6 µM (inactive)
GI50 [42]: 33.9 µM (inactive)
GI50 [43]: 30.6 µM (inactive)
GI50 [44]: 22.1 µM (inactive)
GI50 [45]: 27.4 µM (inactive)
GI50 [46]: 20.1 µM (inactive)
GI50 [47]: 21.2 µM (inactive)
GI50 [48]: > 100 µM (inactive)
GI50 [49]: 23.9 µM (inactive)
GI50 [50]: 25.2 µM (inactive)
GI50 [51]: 23.7 µM (inactive)
GI50 [52]: 19 µM (inactive)
GI50 [53]: 23.8 µM (inactive)
GI50 [54]: 33.4 µM (inactive)
GI50 [55]: 22.3 µM (inactive)
GI50 [56]: 20.8 µM (inactive)
GI50 [57]: 28.3 µM (inactive)
GI50 [58]: 21.5 µM (inactive)
GI50 [59]: 21.2 µM (inactive)

Oc1ccccc1C(Sc1nc2ccccc2s1)Sc1nc2ccccc2s1
GI50 [1]: > 100 µM (inactive)
GI50 [2]: > 100 µM (inactive)
GI50 [3]: > 100 µM (inactive)
GI50 [4]: > 100 µM (inactive)
GI50 [5]: 56.4 µM (inactive)
GI50 [6]: 34.4 µM (inactive)
GI50 [7]: 26.5 µM (inactive)
GI50 [8]: 52.4 µM (inactive)
GI50 [9]: 24.2 µM (inactive)
GI50 [10]: 23.4 µM (inactive)
GI50 [11]: > 100 µM (inactive)
GI50 [12]: > 100 µM (inactive)
GI50 [13]: 51.3 µM
GI50 [14]: 37.1 µM (inactive)
GI50 [15]: > 100 µM (inactive)
GI50 [16]: 22.8 µM (inactive)
GI50 [17]: > 100 µM (inactive)
GI50 [18]: 24.1 µM (inactive)
GI50 [19]: 29.9 µM (inactive)
GI50 [20]: 56.2 µM (inactive)
GI50 [21]: 89.1 µM (inactive)
GI50 [22]: 67.5 µM (inactive)
GI50 [23]: > 100 µM (inactive)
GI50 [24]: > 100 µM (inactive)
GI50 [25]: > 100 µM (inactive)
GI50 [26]: 73.5 µM (inactive)
GI50 [27]: > 100 µM (inactive)
GI50 [28]: 44.2 µM (inactive)
GI50 [29]: 28.4 µM (inactive)
GI50 [30]: 36.3 µM (inactive)
GI50 [31]: 58.7 µM (inactive)
GI50 [32]: > 100 µM (inactive)
GI50 [33]: 17.6 µM (inactive)
GI50 [34]: 57.8 µM (inactive)
GI50 [35]: 31.3 µM (inactive)
GI50 [36]: 76.4 µM (inactive)
GI50 [37]: > 100 µM (inactive)
GI50 [38]: 85.3 µM (inactive)
GI50 [39]: 67.1 µM (inactive)
GI50 [40]: 32.6 µM (inactive)
GI50 [41]: > 100 µM (inactive)
GI50 [42]: 71.6 µM (inactive)
GI50 [43]: 41.6 µM (inactive)
GI50 [45]: > 100 µM (inactive)
GI50 [46]: > 100 µM (inactive)
GI50 [47]: 44 µM (inactive)
GI50 [48]: > 100 µM (inactive)
GI50 [49]: > 100 µM (inactive)
GI50 [50]: 64.6 µM (inactive)
GI50 [51]: > 100 µM (inactive)
GI50 [52]: 43.7 µM (inactive)
GI50 [53]: > 100 µM (inactive)
GI50 [54]: 19.3 µM (inactive)
GI50 [55]: > 100 µM (inactive)
GI50 [56]: 57.7 µM (inactive)
GI50 [57]: > 100 µM (inactive)
GI50 [58]: 69.2 µM (inactive)
GI50 [59]: 6.55 µM (inactive)

N#Cc1c(Cl)cccc1Oc1ccc(S(=O)(=O)N/C(=N\O)Nc2ccc(Cl)cc2)cc1
GI50 [1]: 13.6 µM (inactive)
GI50 [2]: 15.3 µM (inactive)
GI50 [3]: 16.8 µM (inactive)
GI50 [4]: 15.6 µM (inactive)
GI50 [5]: 16.4 µM (inactive)
GI50 [6]: 15.5 µM (inactive)
GI50 [7]: 18.9 µM (inactive)
GI50 [8]: 18.2 µM (inactive)
GI50 [9]: 18.8 µM (inactive)
GI50 [10]: 15.5 µM (inactive)
GI50 [11]: 14.7 µM (inactive)
GI50 [12]: 14.2 µM (inactive)
GI50 [13]: 17.3 µM
GI50 [14]: 12.1 µM (inactive)
GI50 [15]: 17.5 µM (inactive)
GI50 [16]: 11 µM (inactive)
GI50 [17]: 17.3 µM (inactive)
GI50 [18]: 27.4 µM (inactive)
GI50 [19]: 16.3 µM (inactive)
GI50 [20]: 24.2 µM (inactive)
GI50 [21]: 17.2 µM (inactive)
GI50 [22]: 16 µM (inactive)
GI50 [23]: 15.7 µM (inactive)
GI50 [24]: 17.1 µM (inactive)
GI50 [25]: 16.3 µM (inactive)
GI50 [26]: 17.9 µM (inactive)
GI50 [27]: 16.4 µM (inactive)
GI50 [28]: 18.4 µM (inactive)
GI50 [29]: 19.2 µM (inactive)
GI50 [30]: 24.8 µM (inactive)
GI50 [31]: 17.6 µM (inactive)
GI50 [32]: 17.9 µM (inactive)
GI50 [33]: 18 µM (inactive)
GI50 [34]: 20.7 µM (inactive)
GI50 [35]: 15.8 µM (inactive)
GI50 [36]: 14.8 µM (inactive)
GI50 [37]: 19.3 µM (inactive)
GI50 [38]: 18 µM (inactive)
GI50 [39]: 16.4 µM (inactive)
GI50 [40]: 30.4 µM (inactive)
GI50 [41]: 17.9 µM (inactive)
GI50 [42]: 19.9 µM (inactive)
GI50 [43]: 17.2 µM (inactive)
GI50 [44]: 17.7 µM (inactive)
GI50 [45]: 19.9 µM (inactive)
GI50 [46]: 17.6 µM (inactive)
GI50 [47]: 17.2 µM (inactive)
GI50 [49]: 14.8 µM (inactive)
GI50 [50]: 16.3 µM (inactive)
GI50 [52]: 23.9 µM (inactive)
GI50 [53]: 17.6 µM (inactive)
GI50 [54]: 13.2 µM (inactive)
GI50 [55]: 16.6 µM (inactive)
GI50 [56]: 17 µM (inactive)
GI50 [57]: 16.9 µM (inactive)
GI50 [58]: 15.5 µM (inactive)
GI50 [59]: 14.2 µM (inactive)
